This assay concerns reconstructed human epithelium (RHE). The assay is described as follows: Anti-pollution activity: MDA production (lipid peroxidation) in ozone-stressed reconstructed human epithelium. The note with it: Trolox 1 mg/mL. The class given is cell-based. From the text:
The objective of this study is to evaluate the antioxidant, detoxifying and ozone-protective activity of an agrimony extract, following exposure to ozone in a reconstructed human epithelium (RHE) mimicking the effect of pollution on the skin. Lipids playing a role in epidermal barrier function, such as free fatty acids, cholesterol, triglycerides and ceramides, can be impacted under stress conditions with increased oxidative lipid damage. Direct measurements of lipid peroxidation can be carried out by measuring malondialdehyde (MDA) by gas chromatography techniques combined with mass spectrometry. This compound is naturally present in tissues, where it is a manifestation of oxidative stress. It is derived in particular from the action of reactive oxygen derivatives on polyunsaturated fatty acids. Several conditions are realized in this study: • Negative control: non-stressed RHE; • Positive control: ozone-stressed RHE; • Test with an agrimony extract: ozone-stressed RHE is in contact with the extract (n=3), this test is performed with 3 different concentrations (1, 3 and 10 μg/mL); • Test with a reference compound: ozone-stressed RHE is in contact with the reference compound (Trolox). The agrimony extract is solubilized in water/DMSO, (80/20, v/v). The process is based on lipid oxidation from ozonolysis. […] A protection index is calculated from the stress and control conditions. […]

As for `Cc1c(C)c2c(c(C)c1O)CCC(C)(C(=O)O)O2` (centres unmarked) [Trolox, 3,4-Dihydro-6-hydroxy-2,5,7,8-tetramethyl-2H-1-benzopyran-2-carboxylic acid], the “PI (%) protection index” value worked out at 37.6%. The “PI (%) protection index” value (listed as trolox) amounted to 38%.

For the origin of these results see US20220226231A1, “AGRIMONY EXTRACT AS ANTI-POLLUTION AGENT” (PIERRE FABRE DERMO-COSMETIQUE, priority 2019, published 2022).
